Source: patent publication US20260083865A1, “PROSTATE SPECIFIC MEMBRANE ANTIGEN (PSMA) LIGANDS AND USE THEREOF” (priority 2022, published 2026)
Like-named read-outs stand apart in the source and are kept apart here. Each block holds one compound with its values, some of them ahead of it. Numbered stars: 1 amine (or outer) side, 2 acyl side, 3 side chain; on linkers, the order of the positions; unused ones are H or OH. Bridge positions count the residues as written; N and C are the ends. Square brackets hold non-standard residues; d marks the D form. Peptide text beside a SMILES is read from it. * marks the point of attachment. DOTA = O=C(O)CN1CCN(CC(=O)O)CCN(CC(=O)*)CCN(CC(=O)O)CC1; Trp(5-Br) = N[C@@H](Cc1c[nH]c2ccc(Br)cc12)C(=O)O; Phe(4-Cl) = N[C@@H](Cc1ccc(Cl)cc1)C(=O)O; Arg(Me) = CNC(=N)NCCC[C@H](N)C(=O)O; Ethylenediamine = C(CN[*:2])N[*:1]; X1 = O=C(CC1CCN([*:1])CC1)[*:2]; Cit = NC(=O)NCCC[C@H](N)C(=O)O; Tle = CC(C)(C)[C@H](N)C(=O)O; Isovaleryl = CC(C)CC(=O)*; Aib = CC(C)(N)C(=O)O; Ahx = NCCCCCC(=O)O

Legend:
[1] = biological target: T1, PSMA-expressing C4-2 cells (Homo sapiens, UniProt Q04609); experiment: FACS binding assay (competition with 50 nM PSM-0183); conditions: for IC50: read-out: pIC50 [C4-2] CAT (converted)
T1 construct: PSMA-expressing C4-2 cells (ATCC, Cat. No. CRL-3314) were cultured in RPMI-1640; host or cells: C4-2 cells
Summary of the method: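 C4-2 cells were incubated 1 h at 4 °C with 50 nM AF488-labelled peptide PSM-0183 plus increasing test compound concentrations, then washed twice in ice-cold buffer. Median fluorescence in the AF488 channel was read by flow cytometry. IC50/pIC50 was derived by 4PL fitting of MFI versus concentration.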

[2] = biological target: T2, Fc-fusion protein of human PSMA (hPSMA-Fc) (Homo sapiens, UniProt Q04609); experiment: Surface plasmon resonance assay (Biacore T200, single cycle kinetic); assay type: binding; conditions: for Kd: read-out: pKD CAT (converted)
T2 construct: purchased Acro Biosystems PSA-H5264
Summary of the method: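 hPSMA-Fc was captured (~1000 RU) on an Fc-binding-peptide CM5 chip, and compounds were run in single cycle kinetic mode at 25° C in HBST with 0.1% DMSO. Double-blank-corrected sensorgrams were fitted to a 1:1 Langmuir model to give KD, reported as pKD.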

[3] = FACS binding, C4-2 cells, category
[4] = pIC50 category of FACS binding, C4-2 cells
[5] = pKD category for PSMA SPR activity assay, hPSMA-Fc, 25° C.
[6] = FACS binding, PSMA-expressing C4-2 cells, pIC50 category
[7] = PSMA SPR assay, hPSMA-Fc, 25° C., pKD category

T1 sequence (Q04609 whole entry): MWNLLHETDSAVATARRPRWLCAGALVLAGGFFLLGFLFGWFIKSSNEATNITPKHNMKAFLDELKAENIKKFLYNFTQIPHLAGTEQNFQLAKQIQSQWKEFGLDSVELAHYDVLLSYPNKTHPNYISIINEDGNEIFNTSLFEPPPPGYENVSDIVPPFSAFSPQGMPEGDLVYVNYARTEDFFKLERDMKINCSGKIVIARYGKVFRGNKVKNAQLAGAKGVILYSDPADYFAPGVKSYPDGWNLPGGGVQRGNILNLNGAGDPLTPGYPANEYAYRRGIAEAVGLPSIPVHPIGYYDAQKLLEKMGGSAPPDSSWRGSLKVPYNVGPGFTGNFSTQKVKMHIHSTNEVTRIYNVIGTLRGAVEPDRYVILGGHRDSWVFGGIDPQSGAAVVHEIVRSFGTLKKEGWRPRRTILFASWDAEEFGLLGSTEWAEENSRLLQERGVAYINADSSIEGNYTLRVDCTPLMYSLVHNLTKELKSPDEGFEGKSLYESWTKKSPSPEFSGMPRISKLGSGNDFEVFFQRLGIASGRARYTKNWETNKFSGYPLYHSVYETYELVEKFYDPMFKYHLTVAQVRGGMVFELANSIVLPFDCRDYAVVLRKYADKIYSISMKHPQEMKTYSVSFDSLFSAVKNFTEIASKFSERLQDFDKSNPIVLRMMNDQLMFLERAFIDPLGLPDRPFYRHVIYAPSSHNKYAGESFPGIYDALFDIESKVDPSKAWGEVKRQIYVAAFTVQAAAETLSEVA
T2 sequence (Q04609 44-750 limits assumed): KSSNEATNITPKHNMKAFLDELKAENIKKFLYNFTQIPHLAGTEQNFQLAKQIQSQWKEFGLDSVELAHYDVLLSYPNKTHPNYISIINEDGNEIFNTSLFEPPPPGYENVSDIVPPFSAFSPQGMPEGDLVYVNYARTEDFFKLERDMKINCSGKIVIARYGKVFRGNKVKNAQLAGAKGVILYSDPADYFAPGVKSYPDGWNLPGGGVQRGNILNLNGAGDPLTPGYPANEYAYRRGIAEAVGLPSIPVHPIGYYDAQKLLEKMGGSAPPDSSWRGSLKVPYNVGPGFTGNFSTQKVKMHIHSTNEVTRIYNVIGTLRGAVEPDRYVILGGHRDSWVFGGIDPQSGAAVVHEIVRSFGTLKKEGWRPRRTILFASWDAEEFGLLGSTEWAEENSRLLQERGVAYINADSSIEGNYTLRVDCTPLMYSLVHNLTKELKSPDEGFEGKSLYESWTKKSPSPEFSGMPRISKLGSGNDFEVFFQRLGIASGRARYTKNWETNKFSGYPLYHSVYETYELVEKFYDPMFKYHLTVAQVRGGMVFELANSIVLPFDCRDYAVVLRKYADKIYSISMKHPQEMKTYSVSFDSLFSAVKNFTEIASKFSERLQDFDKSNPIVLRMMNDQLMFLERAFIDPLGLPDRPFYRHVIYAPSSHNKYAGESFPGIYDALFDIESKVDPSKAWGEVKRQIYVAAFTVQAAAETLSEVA

IC50 [1, 3]: < 200 nM
Kd ([2]; PSMA SPR assay, category): < 12.6 nM
Compound: CC(=O)N[C@H](C(=O)NC(C)(C)C(=O)N[C@@H](Cc1ccc(Cl)cc1)C(=O)N[C@H]1CSSC[C@@H](C(=O)N[C@H](C(=O)N[C@H](C(N)=O)[C@@H](C)O)C(C)(C)C)NC(=O)[C@H](CC(C)C)NC(=O)C(C)(C)NC(=O)[C@H](CCCNC(=N)N)NC(=O)[C@H](CCCCN)NC1=O)[C@@H](C)O [PSM-0584, Ac-Thr-Aib-Pcf-[Cys-Lys-Cit-Aib-Leu-Cys]-Tle-Thr-NH2] (Ac-T[Aib][Phe(4-Cl)]CKR[Aib]LC[Tle]T-NH2; disulfide 4-9)

IC50 [1, 4]: < 200 nM
Kd [2, 5]: < 12.6 nM
Compound: CC(C)CC(=O)NC(C)(C)C(=O)N[C@@H](Cc1ccc(Cl)cc1)C(=O)N[C@H]1CSSC[C@@H](C(=O)N[C@H](C(=O)N[C@H](C(=O)N[C@H](CCCCNC(=O)CN2CCN(CC(=O)O)CCN(CC(=O)O)CCN(CC(=O)O)CC2)C(N)=O)[C@@H](C)O)C(C)(C)C)NC(=O)[C@H](CC(N)=O)NC(=O)C(C)(C)NC(=O)[C@H](CCCNC(=N)N)NC(=O)[C@H](CCCCN)NC1=O [PSM-0444, Iva-Aib-Pcf-[Cys-Lys-Arg-Aib-Asn-Cys]-Tle-Thr-lys(DOTA)-NH2] (Isovaleryl-[Aib][Phe(4-Cl)]CKR[Aib]NC[Tle]T[dK](DOTA)-NH2; disulfide 3-8)

IC50 [1, 6]: < 200 nM
Kd [2, 7]: < 12.6 nM
Compound: CC(=O)N[C@H](C(=O)NC(C)(C)C(=O)N[C@@H](Cc1ccc(Cl)cc1)C(=O)N[C@H]1CSSC[C@@H](C(=O)N[C@H](C(=O)N[C@H](C(=O)N[C@@H](CC(=O)O)C(N)=O)[C@@H](C)O)C(C)(C)C)NC(=O)[C@H](CC(N)=O)NC(=O)C(C)(C)NC(=O)[C@H](CCCNC(=N)N)NC(=O)[C@H](CCCCN)NC1=O)[C@@H](C)O [PSM-0318, Ac-Thr-Aib-Pcf-[Cys-Lys-Arg-Aib-Asn-Cys]-Tle-Thr-Asp-NH2] (Ac-T[Aib][Phe(4-Cl)]CKR[Aib]NC[Tle]TD-NH2; disulfide 4-9)

IC50 [1, 4]: < 200 nM
Kd [2, 5]: < 12.6 nM
Compound: C[C@@H](O)[C@H](NC(=O)[C@@H](NC(=O)[C@@H]1CSSC[C@H](NC(=O)[C@H](Cc2ccccc2)NC(=O)C(C)(C)NC(=O)[C@@H](NC(=O)CCCCCNC(=O)CN2CCN(CC(=O)O)CCN(CC(=O)O)CCN(CC(=O)O)CC2)[C@@H](C)O)C(=O)N[C@@H](CCCCN)C(=O)N[C@@H](CCCNC(=N)N)C(=O)NC(C)(C)C(=O)N[C@@H](CC(N)=O)C(=O)N1)C(C)(C)C)C(N)=O [PSM-0368, DOTA-Ahx-Thr-Aib-Phe-[Cys-Lys-Arg-Aib-Ass-Cys]-Tle-Thr-NH2] ({DOTA-Ahx}-T[Aib]FCKR[Aib]NC[Tle]T-NH2; disulfide 4-9)

pIC50 [C4-2] CAT [1, 3]: A (pIC50 values >6.7)
pKD CAT ([2]; PSMA SPR assay, category): A (pKD values >7.9)
Compound: InLSC-Cmp-Thr-Aib-Pcf-[Cys-Lys(Me)-Arg(Me)-Aib-Asn-Cys]-Tle-Thr-NH2 [PSM-0604]

IC50 [1, 6]: > 3160 nM
Kd [2, 7]: > 501 nM
Compound: C[C@@H](O)[C@H](NC(=O)[C@@H](NC(=O)[C@@H]1CSSC[C@H](NC(=O)[C@H](Cc2c[nH]c3ccc(Br)cc23)NC(=O)C(C)(C)NC(=O)[C@@H](NC(=O)CC2CCN(C(=O)CN3CCN(CC(=O)O)CCN(CC(=O)O)CCN(CC(=O)O)CC3)CC2)[C@@H](C)O)C(=O)N[C@@H](CCCCN)C(=O)N[C@@H](CCCNC(N)=O)C(=O)NC(C)(C)C(=O)N[C@@H](CC(N)=O)C(=O)N1)C(C)(C)C)C(N)=O [PSM-0359, DOTA-Cmp-Thr-Aib-5Brw-[Cys-Lys-Cit-Aib-Asn-Cys]-Tle-Thr-NH2] ({DOTA}-[X1]T[Aib][Trp(5-Br)]CK[Cit][Aib]NC[Tle]T-NH2; disulfide 5-10)

IC50 [1, 6]: < 200 nM
Kd [2, 7]: < 12.6 nM
Compound: CNC(=N)NCCC[C@@H]1NC(=O)[C@H](CCCCN)NC(=O)[C@@H](NC(=O)[C@H](Cc2ccc(Cl)cc2)NC(=O)C(C)(C)NC(C)=O)CSSC[C@@H](C(=O)N[C@H](C(=O)NCCNC(=O)CN2CCN(CC(=O)O)CCN(CC(=O)O)CCN(CC(=O)O)CC2)C(C)(C)C)NC(=O)[C@H](CC(N)=O)NC(=O)C(C)(C)NC1=O [PSM-0320, Ac-Aib-Pcf-[Cys-Lys-Arg(Me)-Aib-Asn-Cys]-Tle-en-DOTA] (Ac-[Aib][Phe(4-Cl)]CK[Arg(Me)][Aib]NC[Tle]-{Ethylenediamine-DOTA}; disulfide 3-8)
